We go through four molecules from patent publication US20060160095A1, “Survivin” (EiRx Therapeutics Limited, priority 2002, published 2006).

One data set relates to Survivin mRNA. Description: Real-time PCR quantification of survivin mRNA in neutrophils. Type of data set: cell-based, human. To be noted: for survivin mRNA expression in the absence of survival cytokines: 4-h transfection period, no cytokine. Here is the method:
(§1) Neutrophils are cultured at 1×10^6 per ml in complete culture medium. GM-CSF (50 ng/ml; kind gift of T. Hartung, University of Konstanz, Konstanz, Germany) or G-CSF (25 ng/ml; PeproTech, BioConcept, Allschwil, Switzerland) are added. The duration of GM-CSF or G-CSF stimulation is indicated in each experiment.
Neutrophils (1×10^7) are washed with PBS and the RNA is isolated according to the RNeasy protocol (Qiagen AG, Basel, Switzerland), which includes DNase digestion. RNA is reverse transcribed with the first strand cDNA synthesis kit (Amersham Pharmacia Biotech) by using random hexanucleotides according to the manufacturer's instructions. Real-time monitoring of PCR amplification of survivin cDNA is performed with a 1/100 dilution of neutrophil cDNA as previously described (Olie et al. (2000) Cancer Research 60, 2805-2809). Relative quantification of survivin expression is performed as described (Olie et al. (2000) Cancer Research 60, 2805-2809) utilizing rRNA as an internal standard.
(§2) The 20-mer first generation antisense oligonucleotide 4003 targeting the survivin mRNA has been described above. The second generation 2′-O-methoxy-ethoxy (2′-MOE) gapmer version of 4003 (as) and its 3-base mismatch sequence control (ms) are synthesized using an Applied Biosystems 394B automated DNA synthesizer as described (De Mesaeker et al. (1995) Acc. Chem. Res. 28, 366-374). Sequences are as follows: antisense survivin, cscscsasgsCsCsTsTsCsCsAsGsCsTscscststsg; mismatch survivin, cscstsasgsCsCsTsTsCsCsAsGsGsTscscstsasg. Small letters refer to 2′-O-(2-methoxy)-ethyl-modified nucleotides, capital letters to DNA, and “s” refers to phosphorothioate linkages. Cells isolated and cultured as described above are treated with survivin antisense oligonucleotides (as) or survivin mismatch control oligonucleotides (ms) at the indicated concentrations. In the experiments in which GM-CSF (50 ng/ml; kind gift of T. Hartung, University of Konstanz, Konstanz, Germany) or G-CSF (25 ng/ml; PeproTech, BioConcept, Allschwil, Switzerland) are added, the oligonucleotides are given 2 h before addition of cytokines.

In another data set the test system is survivin. Description: Immunoblotting of survivin protein in neutrophils. Type of data set: cell-based, human. Here is the method:
as §1
Neutrophils (5×10^6) are washed with PBS, lysed with RIPA-buffer (0.5% sodium deoxycholate, 1% Nonidet P-40, 0.1% SDS in PBS) supplemented with a protease inhibitor-cocktail (Sigma) with frequent vortexing on ice for 40 min, including two freeze/thaw cycles using a methanol/dry ice bath. After a 10-min centrifugation to remove insoluble particles, equal amounts of the cell lysates are loaded on NuPage-Gels (Invitrogen Corp., Groningen, Netherlands). Separated proteins are electrotransferred onto polyvinylidene difluoride (PVDF) membranes (Immobilion-P, Millipore, Bedford, Mass.). The filters are incubated overnight with a polyclonal anti-survivin antibody (1/1000; R&D Systems, Abingdon, UK) at 4° C. in TBS/0.1% Tween-20/3% non-fat dry milk. Purified full-length recombinant human survivin (2 μl) is provided by R&D Systems as positive control for anti-survivin immunoblotting. For loading controls, stripped filters are incubated with a monoclonal anti-β-actin antibody (1/10,000; Sigma). Filters are washed in TBS/0.1% Tween-20 for 30 min and incubated with the appropriate HRP-conjugated secondary antibody (Amersham Pharmacia Biotech, Dübendorf, Switzerland) in TBS/0.1% Tween-20/5% non-fat dry milk for 1 h. Filters are developed by an ECL-technique (ECL-Kit, Amersham Pharmacia Biotech) according to the manufacturer's instructions.
as §2

For another data set, the system named is Neutrophils. Description: Neutrophil apoptosis by oligonucleosomal DNA fragments after 2-MOE oligonucleotides. Type of data set: cell-based, human. The conditions noted are these: for GM-CSF- and G-CSF-mediated survival of neutrophils: oligonucleotide plus GM-CSF or G-CSF. Here is the method:
Neutrophil apoptosis is assessed by oligonucleosomal DNA fragmentation (Dibbert et al.(1999) Proc. Natl. Acad. Sci. USA 96, 13330-13335; Hebestreit et al. (1998), J. Exp. Med. 187, 415-425) according to Nicoletti et al. ((1991) J. Immunol. Meth. 139, 271-279). Briefly, cells are resuspended in hypotonic fluorochrome solution containing 50 μg/ml propidium iodide (Sigma Buchs, Switzerland), 0.1% sodium citrate (Sigma) and 0.1% (vol/vol) Triton-X 100 (Sigma), incubated at 4° C. for 10 h, and analyzed by flow cytometry (FACScan, Becton Dickinson, Heidelberg, Germany).
as §2
Values are means ±S.E.M. of four independent experiments. *, p<0.05; **, p<0.01; ***, p<0.001.

The subject of data set [1] is caspase-3. Nature of the data set: Caspase-3 immunoblotting in neutrophils. Type of data set: cell-based, human. Here is the method: Immunoblotting is carried out as described above using supernatants of cell lysates. Caspase-3 is detected using a polyclonal anti-caspase-3 antibody (1/1000; Becton Dickinson Pharmingen, Heidelberg, Germany))
(§3) Neutrophils (2.5×10^6) are cultured in the presence or absence of GM-CSF (50 ng/ml), G-CSF (25 ng/ml), 2-MOE modified antisense or mismatch survivin oligonucleotides at the indicated concentrations for 10 h, washed with cold PBS and subsequently lysed in 50 μl cell lysis buffer (50 mM HEPES, pH 7.4/0.1% Chaps/5 mM DTT/0.1 mM EDTA) using a Teflon glass homogenizer (VWR International, Ismaning, Germany) on ice for 10 min. After a 10-min centrifugation step at 10,000×g at 4° C., an aliquot of the supernatant is saved for caspase-3 immunoblotting and caspase 3-like activity is measured in 10 μl supernatants as enzymatic-conversion of the colorimetric substrate Ac-DEVD-pNA at 405 nm according to the manufacturer's instructions (QuantiZyme caspase 3 cellular activity assay kit, Biomol, Plymouth Meeting, Pa., USA).
(In general: In western blotting, separated proteins are transferred to a membrane and probed.)

The subject of data set [2] is caspase-3. Description: Enzymatic caspase assay (Ac-DEVD-pNA) in neutrophil lysates. Type of data set: cell-based, human. Here is the method: as §3
For data set [3], the system named is Primary human neutrophils. Nature of the data set: MTT survival assay of neutrophils cultured with GM-CSF, with or without gliotoxin. The conditions noted are these: 0.1 μg/ml added with 5 U/ml GM-CSF. Type of data set: cell-based. Here is the method: Primary human neutrophils are isolated and purified from peripheral blood of normal healthy individuals. Neutrophils are resuspended in serum containing culture medium together with various amounts of GM-CSF at a density of 2×10^6/ml, with 100 μl plated into a 96 well plate and cultured for 18 h at 37° C. After this time 10 μl of MTT (5 mg/ml) is added to the cultures and incubated for a further 4 h at 37° C. before solubilisation of the purple coloured formazan with acidic isopropanol. Optical densities are read at 570 nm using a plate reader.
Primary human neutrophils are isolated and purified from peripheral blood of normal healthy individuals. Neutrophils are resuspended in serum containing culture medium containing 5 U/ml of GM-CSF at a concentration of 2×10^6/ml. […] After the indicated time, 10 μl of MTT (5 mg/ml) are added to the cultures and incubated for a further 4 h at 37° C. before solubilisation of the purple coloured formazan with acidic isopropanol. Optical densities are read at 570 nm using a plate reader.

e = 2'-O-(2-methoxyethyl) (MOE); d = 2'-deoxy (DNA)

Regarding “cscscsasgsCsCsTsTsCsCsAsGsCsTscscststsg (CCCAGCCTTCCAGCTCCTTG; sugars from the 5' end e5 d10 e5, all phosphorothioate, methylation of C not given here) [survivin-antisense, second generation 2′-O-methoxy-ethoxy (2′-MOE) gapmer version of 4003]”, in the data set on Survivin mRNA, the “survivin mRNA expression in the absence of survival cytokines” value is reported as “only little effects”. Moreover, the “required concentration to significantly decrease survivin mRNA levels” value in the data set with Survivin mRNA (G-CSF stimulation) is 2.5 µM. Moreover, the “concentration sufficient to significantly decrease survivin mRNA levels” value in the data set on Survivin mRNA (GM-CSF stimulation) is 1.0 µM. Also, the “increases in survivin mRNA expression upon GM-CSF and G-CSF stimulation” value in the data set on Survivin mRNA (oligonucleotides given 2 h before cytokines, dose-dependent) is on record as “prevents increases in survivin mRNA expression”. Besides, the “protein expression of survivin in normal neutrophils” value with survivin (15-h transfection period, no cytokine) is on record as “almost not affected”. Moreover, the entries for the “optimal concentration to block increase in survivin protein expression” value with survivin (G-CSF stimulation) and in the data set on survivin (GM-CSF stimulation) were 5 µM and 2.5 µM, respectively. For the same molecule, in the data set with survivin (dose-dependent), the “increases in survivin expression (protein) upon GM-CSF and G-CSF stimulation” value is given as “prevents increases in survivin expression”. Besides, in the data set with Neutrophils (10-h transfection period, no cytokine), the “spontaneous apoptosis of neutrophils” value was “increase spontaneous apoptosis”. Besides, the figures for the “optimal concentration to block cytokine-mediated antiapoptosis” value in the data set on Neutrophils (G-CSF) and with Neutrophils (GM-CSF) were 5 µM and 2.5 µM, respectively. Also, the “GM-CSF- and G-CSF-mediated survival of neutrophils” value with Neutrophils is “blocked GM-CSF- and G-CSF-mediated survival in a dose-dependent manner”. Further, the entries for the “optimal concentration to block inhibitory effects on caspase-3 processing” value with caspase-3 [1] (G-CSF) and with caspase-3 [1] (GM-CSF) were 5 µM and 2.5 µM, respectively. In the data set with caspase-3 [1] (dose-dependent, 10 h), the “caspase-3 processing in the presence of GM-CSF or G-CSF” value is listed as “increase caspase-3 processing”. Besides, the results for the “optimal concentration at which inhibitory effect on caspase-3 activity is completely blocked” value in the data set on caspase-3 [2] (G-CSF) and in the data set on caspase-3 [2] (GM-CSF) were 5 µM and 2.5 µM, respectively. Besides, in the data set with caspase-3 [2] (dose-dependent, 10 h), the “caspase-3-like enzymatic activity in the presence of GM-CSF or G-CSF” value is listed as “increase caspase-3-like enzymatic activity”.
Take “cscstsasgsCsCsTsTsCsCsAsGsGsTscscstsasg (CCTAGCCTTCCAGGTCCTAG; sugars from the 5' end e5 d10 e5, all phosphorothioate, methylation of C not given here) [mismatch control oligonucleotides, reference compound]”: in the data set with Survivin mRNA, the “survivin mRNA expression in the absence of survival cytokines” value is recorded as “only little effects”. Also, the “GM-CSF- and G-CSF-mediated survival of neutrophils” value in the data set on Neutrophils is “unspecific effect”.
Consider `CS[C@]1(CO)C(=O)N2[C@H]3C(=CC=C[C@@H]3O)C[C@@]2(SC)C(=O)N1C` [methylgliotoxin, bis-Dethio-bis (Methylthio) Methyl Gliotoxin], for which, in data set [3], the “block of the GM-CSF inhibition of neutrophil apoptosis (MTT)” value is on record as “blocking effect is not seen”.

B1: G-CSF: inflammatory cytokine, neutrophil hematopoietin (PeproTech) (protein, UniProt P09919 31-207, looked up)
Granulocyte …: TPLGPASSLPQSFLLKCLEQVRKIQGDGAALQEKLVSECATYKLCHPEELVLLGHSLGIPWAPLSSCPSQALQLAGCLSQLHSGLFLYQGLLQALEGISPELGPTLDTLQLDVADFATTIWQQMEELGMAPALQPTQGAMPAFASAFQRRAGGVLVASHLQSFLEVSYRVLRHLAQP
For the molecule B1, the “survivin mRNA in normal control neutrophils after cytokine addition” value in the data set with Survivin mRNA (cytokine added in vitro, A549 standard = 100%) is recorded as “increase in survivin mRNA”. Moreover, the “Levels of survivin (immunoblot) in normal control neutrophils” value in the data set with survivin (cultured for 12 h in the presence of cytokine) is listed as “increased”. The “DNA-fragmentation of neutrophils with cytokine” value in the data set with Neutrophils (cytokine alone) is reported as “prevent DNA-fragmentation”. Also, the “caspase-3 proform and 17-kDa fragment levels with cytokine” value with caspase-3 [1] (neutrophils cultured with GM-CSF or G-CSF for 10 h) is reported as “maintain greater amounts of the caspase-3 proform”.
